The source made the active and inactive calls. No cut-off for these calls is given here.
Key:
[1] = biological target: T1, Beta-secretase 1 (Homo sapiens, UniProt P56817); assay: Mixed type inhibition of recombinant human BACE1 using Rh-EVNLDAEFK-Quencher as substrate after 60 mins by Dixon plot analysis
[2] = biological target: Acetylcholinesterase (Electrophorus electricus, UniProt O42275); assay: Inhibition of electric eel AChE using acetylthiocholine iodide as substrate incubated for 15 mins by spectrophotometric analysis
[3] = biological target: Cholinesterase (Equus caballus, UniProt P81908); assay: Inhibition of equine serum BChE using butyrylthiocholine chloride as substrate incubated for 15 mins by spectrophotometric analysis
[4] = biological target: T1, Beta-secretase 1; assay: Inhibition of recombinant human BACE1 using Rh-EVNLDAEFK-Quencher as substrate after 60 mins by FRET assay
[5] = biological target: T1, Beta-secretase 1; assay: Noncompetitive inhibition of recombinant human BACE1 using Rh-EVNLDAEFK-Quencher as substrate after 60 mins by Lineweaver-Burk plot analysis
[6] = biological target: T1, Beta-secretase 1; assay: Noncompetitive inhibition of recombinant human BACE1 using Rh-EVNLDAEFK-Quencher as substrate after 60 mins by Dixon plot analysis

Chain of Acetylcholinesterase (O42275 whole entry): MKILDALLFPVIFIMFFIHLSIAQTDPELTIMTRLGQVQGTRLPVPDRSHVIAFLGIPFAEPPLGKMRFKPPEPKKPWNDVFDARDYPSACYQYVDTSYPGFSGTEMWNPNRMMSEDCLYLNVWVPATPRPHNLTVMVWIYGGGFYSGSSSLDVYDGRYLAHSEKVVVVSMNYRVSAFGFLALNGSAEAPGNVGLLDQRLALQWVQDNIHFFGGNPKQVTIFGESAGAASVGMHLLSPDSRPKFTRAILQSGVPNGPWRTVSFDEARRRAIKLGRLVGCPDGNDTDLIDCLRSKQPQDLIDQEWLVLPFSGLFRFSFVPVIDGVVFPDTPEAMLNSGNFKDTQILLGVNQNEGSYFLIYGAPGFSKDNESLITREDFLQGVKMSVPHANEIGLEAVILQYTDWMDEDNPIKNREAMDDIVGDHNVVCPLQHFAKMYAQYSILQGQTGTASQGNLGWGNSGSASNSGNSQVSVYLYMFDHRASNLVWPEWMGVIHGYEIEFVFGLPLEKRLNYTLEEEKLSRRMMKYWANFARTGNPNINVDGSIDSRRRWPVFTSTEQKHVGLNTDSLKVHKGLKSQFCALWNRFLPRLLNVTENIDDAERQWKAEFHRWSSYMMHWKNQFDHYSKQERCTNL
Chain of Cholinesterase (P81908 whole entry): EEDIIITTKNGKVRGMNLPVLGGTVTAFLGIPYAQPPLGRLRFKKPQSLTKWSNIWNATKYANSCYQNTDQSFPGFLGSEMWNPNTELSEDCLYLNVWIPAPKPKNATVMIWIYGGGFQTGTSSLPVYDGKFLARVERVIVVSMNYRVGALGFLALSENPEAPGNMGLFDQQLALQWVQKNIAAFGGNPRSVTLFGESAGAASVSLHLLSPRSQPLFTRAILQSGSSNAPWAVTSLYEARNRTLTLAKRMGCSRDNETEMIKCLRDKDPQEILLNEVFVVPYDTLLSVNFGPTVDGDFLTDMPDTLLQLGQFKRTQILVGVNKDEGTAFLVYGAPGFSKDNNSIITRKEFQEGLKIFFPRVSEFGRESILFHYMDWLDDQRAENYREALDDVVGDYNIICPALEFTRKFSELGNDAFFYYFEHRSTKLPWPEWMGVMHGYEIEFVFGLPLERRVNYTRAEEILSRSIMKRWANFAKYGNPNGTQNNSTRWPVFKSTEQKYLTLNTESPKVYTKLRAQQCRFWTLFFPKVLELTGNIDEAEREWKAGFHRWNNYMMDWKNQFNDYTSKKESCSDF
T1 sequence (P56817 whole entry): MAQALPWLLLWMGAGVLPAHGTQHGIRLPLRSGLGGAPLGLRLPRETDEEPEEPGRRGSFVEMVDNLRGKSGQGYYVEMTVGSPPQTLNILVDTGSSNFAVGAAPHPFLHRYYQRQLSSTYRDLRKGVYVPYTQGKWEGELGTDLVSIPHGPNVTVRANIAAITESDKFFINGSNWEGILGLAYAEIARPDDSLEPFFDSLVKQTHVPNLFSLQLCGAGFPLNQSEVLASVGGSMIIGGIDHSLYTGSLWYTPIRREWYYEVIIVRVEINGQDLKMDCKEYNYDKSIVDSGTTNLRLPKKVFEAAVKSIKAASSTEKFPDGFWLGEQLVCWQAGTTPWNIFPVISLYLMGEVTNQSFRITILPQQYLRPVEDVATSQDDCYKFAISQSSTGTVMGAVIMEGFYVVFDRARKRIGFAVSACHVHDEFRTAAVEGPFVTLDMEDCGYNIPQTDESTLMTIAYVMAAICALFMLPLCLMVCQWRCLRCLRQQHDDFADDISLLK

**Q.** What does the source list for `CC(C)=CCC/C(=C/CC/C(C)=C/CC/C(C)=C/CC1=CC(=O)C=C(C)C1=O)C(=O)O`?
**A.** Ki [1]: 4 µM; IC50 [2]: 69.3 µM; IC50 [3]: 10.5 µM

**Q.** `CC(C)=CCC/C(=C/CC/C(C)=C/CCC1(C)C=Cc2cc(O)cc(C)c2O1)C(=O)O` (stereo not drawn) was tested. Which IC50 [2] did it give?
**A.** Its IC50 is 97.3 µM.

**Q.** And the IC50 [3]?
**A.** The IC50 was 9.4 µM.

**Q.** What about the IC50 [4] of the same molecule?
**A.** Its IC50 is 7 µM.

**Q.** What about the inhibition [5] of the same molecule?
**A.** Its inhibition is “Active”.

**Q.** What about the Ki [6] of the same molecule?
**A.** The Ki was 2.9 µM.

**Q.** `COc1ccc2cc3[n+](cc2c1OC)CCc1cc2c(cc1-3)OCO2` [BERBERINE] was tested. Which IC50 [2] did it give?
**A.** Its IC50 is 1.6 µM.

**Q.** Which Ki [1] does the source give for `CC(C)=CCC/C(=C/CC/C(C)=C/CC/C(C)=C/Cc1cc(O)cc(C)c1O)C(=O)O` [SARGAHYDROQUINOIC ACID] here?
**A.** The Ki was 1.6 µM.

**Q.** And the IC50 [2]?
**A.** The IC50 was 124 µM.

**Q.** What about the IC50 [3] of the same molecule?
**A.** The IC50 was 15.2 µM.

**Q.** And the IC50 [4]?
**A.** The IC50 was 4.4 µM.

From ChEMBL document CHEMBL4052658, “BACE1 inhibitory activity and molecular docking analysis of meroterpenoids from Sargassum serratifolium” (Bioorg Med Chem, 2017)
